The text below walks through data of article PMC11589570, “Critical assessment of LC3/GABARAP ligands used for degrader development and ligandability of LC3/GABARAP binding pockets” (Nature Communications, 2024).

Structures are written as SMILES. Several values for one entry are separate records, joined by “and”; a condition that tells them apart may be missing. Equal values may be shown once.

The target in one assay is LC3A (Homo sapiens, UniProt Q9H492). Kind of assay: FP assay with Cy5-labelled p62 LIR tracer (protein titration and tracer displacement). It counts as binding. The following applies: LC3A tracer displacement, normalized on p62-LIR positive control.
A further assay has as its system RPE1 cells. Put plainly: Cell growth assay (IncuCyte confluence over 72 h). It counts as cell-based. As to the method:
Cell growth assay: Cell confluence (phase) from RPE1 (hTERT RPE-1, ATCC CLR_4000) or U2OS (ATCC, HTB-96) cell lines were monitored over time with the IncuCyte S3 (Sartiorius, Germany) in 384-well plates in 50 ul DMEM media, supplemented with 10% Fetal Bovine Serum (FBS) 1% penicillin/Streptomycin and incubated 24 h before treatment. Experiment was performed as described in Cano-Franco et al.. 50 μl of media containing either 2× final concentration of indicated compounds in or control compounds (final conc.: 0.1% DMSO, 250 nM Torin1, 200 ng/mL Bafilomycin) were added and images were taken every two hours over 72 h. Cell confluence is represented as % of area covered by cells. Each data point represents the average ratio or confluence obtained from three individual wells of the plate.

In another assay the test system is U2OS cells. Put plainly: Cell growth assay (IncuCyte confluence over 72 h). It counts as cell-based. More on the design: key to U2OS cell growth: % of well area covered by cells (confluence). As to the method: Cell growth assay: Cell confluence (phase) from RPE1 (hTERT RPE-1, ATCC CLR_4000) or U2OS (ATCC, HTB-96) cell lines were monitored over time with the IncuCyte S3 (Sartiorius, Germany) in 384-well plates in 50 ul DMEM media, supplemented with 10% Fetal Bovine Serum (FBS) 1% penicillin/Streptomycin and incubated 24 h before treatment. Experiment was performed as described in Cano-Franco et al.. […] Cell confluence is represented as % of area covered by cells. Each data point represents the average ratio or confluence obtained from three individual wells of the plate.

For the molecule `Cc1ccc(NS(=O)(=O)c2ccc(C(=O)N(C)Cc3ccccc3)cc2)cc1` [TH281], on LC3A, the “% tracer bound @LC3A” value was 95%.

In the case of `CCCCCCC(Sc1nc2ccc(NCc3ccc(C(C)(C)C)cc3)cc2s1)C(=O)O` (centres unmarked) [TH185], on LC3A, the “% tracer bound @LC3A” value is reported as 82%.

Take `CCCCCCC(Sc1nc(Cl)cc(Nc2nc(-c3ccccc3)cs2)n1)C(=O)O` (centres unmarked) [TH020]: on LC3A, the “% tracer bound @LC3A” value is 84%.

With `CCCCCCC(Sc1nc(Cl)cc(Nc2nc(-c3ccc(-c4ccccc4)cc3)cs2)n1)C(=O)O` (centres unmarked) [TH104], the “% tracer bound @LC3A” value at LC3A was 82%.

For the molecule `CCCCC(Sc1nc2ccc(NC(=O)c3ccc(C(C)(C)C)cc3)cc2s1)C(=O)O` (centres unmarked) [TH188], the “% tracer bound @LC3A” value on LC3A was determined as 89%.

With `CCCCCCC(Sc1nc(Cl)cc(Nc2nc(-c3ccc(OC)cc3)cs2)n1)C(=O)O` (centres unmarked) [TH121], the “% tracer bound @LC3A” value at LC3A is reported as 83%.

With `CCCCCCC(Sc1nc2ccc(NCc3ccc(Cl)c(Cl)c3)cc2s1)C(=O)O` (centres unmarked) [TH198], the “% tracer bound @LC3A” value on LC3A was 79%.

In the case of `CCC(Sc1nc(Cl)cc(Nc2nc(-c3ccc4ccccc4c3)cs2)n1)C(=O)O` (centres unmarked) [TH107], the “% tracer bound @LC3A” value on LC3A is listed as 82%.

Take `O=C1CC(c2ccc(Cl)c(Cl)c2)CC(=O)C1=CNCCN1CCNCC1` (centres unmarked) [Cov-3]: the RPE1 cell growth was 12 and 21 and 11 in the assay on RPE1 cells (100 nM, 0 h); 14 and 25 and 13 with RPE1 cells (100 nM, 2 h); 19 and 28 and 14 in the assay with RPE1 cells (100 nM, 6 h); 20 and 32 and 17 in the assay on RPE1 cells (100 nM, 12 h); 15 and 23 and 13 with RPE1 cells (500 nM, 0 h); 16 and 27 and 14 with RPE1 cells (500 nM, 2 h). Besides, the RPE1 cell growth in the assay on RPE1 cells (500 nM, 6 h) is 20 and 32 and 17; in the assay on RPE1 cells (500 nM, 10 h) it was 21 and 34 and 17; in the assay on RPE1 cells (500 nM, 12 h), 23 and 35 and 18; in the assay with RPE1 cells (1 uM, 0 h), 13 and 24; in the assay on RPE1 cells (1 uM, 8 h), 16 and 20 and 31; in the assay with RPE1 cells (1 uM, 10 h), 17 and 18 and 32. Moreover, the RPE1 cell growth in the assay with RPE1 cells (1 uM, 12 h) is 18 and 19 and 34; in the assay on RPE1 cells (3 uM, 0 h), 16 and 20 and 13; with RPE1 cells (3 uM, 2 h), 21 and 23 and 14; in the assay with RPE1 cells (3 uM, 4 h), 23 and 26 and 14; in the assay with RPE1 cells (3 uM, 6 h), 24 and 27 and 16; in the assay with RPE1 cells (3 uM, 8 h), 24 and 29 and 17. In addition, the RPE1 cell growth is 23 and 29 and 18 in the assay on RPE1 cells (3 uM, 10 h); 26 and 31 and 20 in the assay on RPE1 cells (3 uM, 12 h); 16 and 20 and 13 in the assay on RPE1 cells (5 uM, 0 h); 20 and 24 and 15 in the assay on RPE1 cells (5 uM, 2 h); 22 and 26 and 15 with RPE1 cells (5 uM, 4 h); 23 and 28 and 18 with RPE1 cells (5 uM, 6 h). Moreover, the RPE1 cell growth is 24 and 30 and 18 in the assay on RPE1 cells (5 uM, 8 h); 22 and 29 and 19 in the assay with RPE1 cells (5 uM, 10 h); 23 and 32 and 20 in the assay on RPE1 cells (5 uM, 12 h); 16 and 20 and 13 with RPE1 cells (10 uM, 0 h); 19 and 23 and 17 in the assay on RPE1 cells (10 uM, 2 h); 22 and 25 and 18 in the assay with RPE1 cells (10 uM, 4 h). Further, the RPE1 cell growth in the assay with RPE1 cells (10 uM, 6 h) is 22 and 29 and 20; in the assay with RPE1 cells (10 uM, 8 h) it was 24 and 31 and 21; in the assay on RPE1 cells (10 uM, 10 h), 23 and 30; in the assay with RPE1 cells (10 uM, 12 h), 26 and 32 and 23. Also, the U2OS cell growth in the assay on U2OS cells (100 nM, time 10 h) was 33.6743 and 37.4722 and 28.8223; in the assay on U2OS cells (100 nM, time 0 h), 14.5416 and 22.9345 and 12.3076; with U2OS cells (100 nM, time 2 h), 20.4728 and 24.9456 and 18.1328; with U2OS cells (100 nM, time 4 h), 32.466 and 35.1005 and 23.9495; in the assay on U2OS cells (100 nM, time 6 h), 27.7123 and 37.9082 and 23.0201; with U2OS cells (100 nM, time 8 h), 36.178 and 29.1087 and 28.1634. The U2OS cell growth in the assay with U2OS cells (500 nM, time 0 h) is 19.4597 and 15.6761 and 23.7515; with U2OS cells (500 nM, time 2 h) it was 17.2401 and 19.2948 and 26.8842; in the assay with U2OS cells (500 nM, time 4 h), 23.0548 and 20.6729 and 33.4847; with U2OS cells (500 nM, time 6 h), 31.9275 and 22.0748 and 27.2708; in the assay with U2OS cells (500 nM, time 8 h) it was 20.0458 and 23.4357 and 28.1267; with U2OS cells (1 uM, time 10 h), 29.6152. Further, the U2OS cell growth is 18.8183 and 26.6645 and 23.9984 with U2OS cells (1 uM, time 0 h); 21.0614 and 26.8371 and 29.3905 in the assay on U2OS cells (1 uM, time 2 h); 24.6352 and 31.1306 and 32.3496 with U2OS cells (1 uM, time 4 h); 26.5224 and 36.4121 and 30.4909 in the assay with U2OS cells (1 uM, time 6 h); 20.3314 and 37.2236 and 29.7059 in the assay on U2OS cells (1 uM, time 8 h); 36.1248 and 21.9705 and 35.4647 with U2OS cells (3 uM, time 0 h). Also, the U2OS cell growth with U2OS cells (3 uM, time 2 h) was 38.4423 and 25.3153 and 30.1014; in the assay on U2OS cells (3 uM, time 4 h), 41.4594 and 31.6601 and 38.4044; with U2OS cells (3 uM, time 6 h), 35.1153 and 23.5308 and 36.0085; with U2OS cells (3 uM, time 8 h), 37.1896 and 25.2973 and 34.3262; in the assay with U2OS cells (5 uM, time 10 h), 45.8479 and 32.8378 and 36.0561; with U2OS cells (5 uM, time 0 h) it was 35.0072 and 29.5152 and 28.3077. Moreover, the U2OS cell growth with U2OS cells (5 uM, time 2 h) was 34.3656 and 30.4257 and 30.1228; with U2OS cells (5 uM, time 4 h) it was 36.9905 and 31.4377 and 28.9247; in the assay on U2OS cells (5 uM, time 6 h) it was 42.578 and 38.6163 and 31.6899; in the assay with U2OS cells (5 uM, time 8 h) it was 38.0361 and 32.4495 and 27.1279; in the assay on U2OS cells (10 uM, time 10 h), 36.2219 and 24.7441 and 23.9347; in the assay with U2OS cells (10 uM, time 0 h) it was 31.5761 and 18.5024 and 22.4964. Further, the U2OS cell growth with U2OS cells (10 uM, time 2 h) is 30.3213 and 20.7145 and 20.7242; in the assay on U2OS cells (10 uM, time 4 h), 34.613 and 22.1736 and 25.1322; in the assay with U2OS cells (10 uM, time 6 h), 35.028 and 21.2307 and 23.3926; in the assay on U2OS cells (10 uM, time 8 h), 32.1571 and 22.7698 and 18.9042.

Consider `CCCCCCC(Sc1nc(Cl)cc(Nc2nc(-c3ccc(F)cc3F)cs2)n1)C(=O)O` (centres unmarked) [TH054], for which the “% tracer bound @LC3A” value on LC3A stood at 75%.

For the molecule `CCCCCCC(Sc1nc2ccc(NCc3ccc4ccccc4c3)cc2s1)C(=O)O` (centres unmarked) [TH191], on LC3A, the “% tracer bound @LC3A” value amounted to 78%.

For the molecule `CN(Cc1ccccc1)C(=O)c1ccc(S(=O)(=O)Nc2ccccc2)cc1` [TH676], on LC3A, the “% tracer bound @LC3A” value is 84%.

As for `CCCCCCC(Sc1nc(Cl)cc(Nc2nc(-c3ccc(Cl)c(Cl)c3)cs2)n1)C(=O)O` (centres unmarked) [TH083], the “% tracer bound @LC3A” value at LC3A is 84%.

Take `CCCCCCC(Sc1nc(Cl)cc(Nc2nc(-c3ccccc3)c(CC)s2)n1)C(=O)O` (centres unmarked) [TH100]: the “% tracer bound @LC3A” value at LC3A amounted to 77%.

Consider `CCCCCCC(Sc1nc2ccc(NCc3ccccc3)cc2s1)C(=O)O` (centres unmarked) [TH195], for which the “% tracer bound @LC3A” value at LC3A is 78%.

`CCCCCCC(Sc1nc(Cl)cc(Nc2nc(-c3ccc(Br)cc3)c(C)s2)n1)C(=O)O` (centres unmarked) [TH057]: the “% tracer bound @LC3A” value on LC3A is 94%.

Consider `CCCCCCC(Sc1nc2ccc(NC(=O)c3ccc(-c4ccccc4)cc3)cc2s1)C(=O)O` (centres unmarked) [TH181], for which the “% tracer bound @LC3A” value on LC3A came to 78%.

Turning to `CCCCCCC(Sc1nc(Cl)cc(Nc2nc3c(s2)CCc2cc(OC)ccc2-3)n1)C(=O)O` (centres unmarked) [TH062], at LC3A, the “% tracer bound @LC3A” value is 76%.

Take `CCCCCCC(Sc1nc(Cl)cc(Nc2nc(-c3ccc4ccccc4c3)cs2)n1)C(=O)O` (centres unmarked) [TH034]: the “% tracer bound @LC3A” value at LC3A came out at 79%.

Take `CCCCCCC(Sc1nc(Cl)cc(Nc2nc(-c3ccc(F)c(F)c3)cs2)n1)C(=O)O` (centres unmarked) [TH044]: the “% tracer bound @LC3A” value on LC3A stood at 76%.

Take `CCCCCCC(Sc1nc(Cl)cc(Nc2nc(-c3ccc([N+](=O)[O-])cc3)cs2)n1)C(=O)O` (centres unmarked) [TH056]: the “% tracer bound @LC3A” value at LC3A was determined as 61%.

As to `CCCCCCC(Sc1nc(Cl)cc(Nc2nc(-c3ccc(Br)cc3)cs2)n1)C(=O)O` (centres unmarked) [TH026], on LC3A, the “% tracer bound @LC3A” value came out at 79%.

On to `COc1ccc(CN(CC2CCCCC2)S(=O)(=O)c2ccc(C(=O)O)cc2)cc1` [TH119], for which the “% tracer bound @LC3A” value at LC3A amounted to 92%.

With `COc1ccc(CN(Cc2cccc(C#N)c2)S(=O)(=O)c2ccc(C(=O)O)cc2)cc1` [TH061], the “% tracer bound @LC3A” value on LC3A was determined as 83%.

For `O=C(NCc1ccccc1)c1ccc(S(=O)(=O)Nc2ccccc2)cc1` [TH253], the “% tracer bound @LC3A” value at LC3A is recorded as 88%.

Turning to `CCCCCCC(Sc1nc(Cl)cc(Nc2nc(-c3ccc(Cl)cc3Cl)cs2)n1)C(=O)O` (centres unmarked) [TH102], the “% tracer bound @LC3A” value at LC3A was determined as 78%.

With `CCN(Cc1ccccc1)C(=O)c1ccc(S(=O)(=O)Nc2ccccc2)cc1` [TH677], the “% tracer bound @LC3A” value on LC3A is on record as 87%.

For the molecule `O=C(O)c1ccc(S(=O)(=O)N(Cc2ccc(Oc3ccccc3)cc2)CC2CCCCC2)cc1` [TH133], at LC3A, the “% tracer bound @LC3A” value turned out to be 82%.
